Measurements from EP0961591B1, “METHOD TO ENHANCE TISSUE AC[…] RADIOLABELED COMPOUNDS” (BOARD OF SUPERVISORS OF LOUISIANA STATE UNIVERSITY AND …, priority 1997, dated 1999).
Where two headings read alike, the source gives them in different places.

Assays:
[1] = system: neuroendocrine cancers expressing the somatostatin receptor; assay: Pilot clinical trial of monthly 180 mCi doses; assay type: in vivo, human; settings: ten patients
Description: For six months, pilot clinical trials were conducted in ten human patients with progressive metastatic indolent and symptomatic neuroendocrine cancers expressing the somatostatin receptor. […] The first monthly dose was a bolus injection of 180 mCi. The second monthly dose was infusion of 180 mCi over 72 hr. The third monthly dose was infusion of 180 mCi over 24 hr. Thereafter, all monthly doses were infusion of 180 mCi over 24 hr. Clinical benefits (as evidenced by reduced pain, weight gain, reduced malaise, etc.) occurred in 6 of the 10 neuroendocrine (carcinoid/islet cell) patients. Partial radiographic responses (greater than 50% reduction in the product of perpendicular tumor diameters) occurred in 2 patients, and significant tumor necrosis developed in 7 of the 10 neuroendocrine patients. Treatment-related toxicity included 2 Grade III platelet, 1 Grade II WBC, 1 Grade I WBC and 2 Grade I Hb on the NCI (National Cancer Institute) grading scale.

[2] = system: tumor in the left side of the neck
Description: During and after each administration of the last eight doses, a tumor in the left side of the neck was monitored for radioligand uptake with an ion chamber survey meter, a Victoreen 450P ion chamber, which measures external gamma dose rates. Administration of the initial seven doses were by bolus injection. The last three doses were delivered by infusion with various activities of radioligand.
The external gamma dose rates from radioligand accumulation in the neck tumor area were measured immediately and 24 hr after injection.
Four months after the final bolus dose, the first dose by infusion ("Infusion 1") was administered. A dose equivalent to the previous bolus dose (175.9 mCi) was given, but the radioligand was administered by infusion over 72 hr at a constant rate of 2.5 mCi/hr.
One month later, in "Infusion 2," the total dose was increased to 389.2 mCi. By infusion, 189.8 mCi of the radioligand was given over the first 24 hr, 108.6 mCi over the second 24 hr, and 90.8 mCi over the third 24 hr. For each 24 hr period, the infusion rate was kept constant.
One month later, a third dose was administered by infusion ("Infusion 3"). A dose of 301 mCi was infused the first 24 hr period. In two subsequent 24 hr periods, 25 and 21 mCi were infused.

SKNSH = assay: Peptide binding and internalization assay; set-up: species or system human
Text: The cells included: (1) IMR-32 (ATCC No. CCL-127), a human neuroblastoma cell line with a very high expression level of somatostatin receptors (SST), predominantly SST-2; (2) SKNSH (ATCC No. HTB-11), a human neuroblastoma bone marrow metastatic cell that lacks somatostatin receptors as defined by either a binding assay or reverse transcriptase-polymerase chain reaction (RTPCR); and (3) SK-R2, a SKNSH-derived cell line transfected with the gene for the SST-2 receptor. The IMR-32 and the SK-R2 cells express somatostatin receptors type 2 (SST-2). […] Cell lines were obtained from the ATCC (IMR-32 and SKNSH) or from Ohio State University (Columbus, Ohio) (SK-R2). All cells lines were maintained in 5% CO2 at 37°C in media defined by the suppliers of the cell lines.
(§1) Cells were harvested, counted with a hemocytometer, and resuspended in binding buffer (Minimum Essential Medium (MEM), 10 mM Hepes, 0.01% BSA). A standard assay used 500,000 cells in 1 ml of binding buffer. Radioactive ligand alone (500,000 cpm), or in combination with at least 1,000-fold molar excess (10^-6 M) non-radioactive compound (to calculate specific binding), was added to a final volume of 1 ml. At the termination of the experiment, the incubation medium was removed, the cells were rinsed twice with Hanks balanced salt solution (HBSS), and the radioactivity in the cells determined using a gamma counter. This level of radioactivity represents total binding, which includes both membrane-bound and internalized fractions. Specific binding was determined by calculating the difference in the levels of measured radioactivity without the unlabeled competitor minus the radioactivity with the unlabeled competitor.
(§2) To differentiate between membrane and intracellular binding, cells were subsequently incubated for 10 min at 4°C with acidified HBSS (pH=4-5), rinsed in HBSS, and the radioactivity again determined using the gamma counter. Since the acid wash preferentially released the radioactive ligand from the external surface of the cell, remaining radioactivity was attributed to internalized fractions. Membrane-associated binding was then calculated as the difference between the total binding and internalized fractions.
(§3) The assay methods were as described in Example 2.

IMR-32 = assay: Peptide binding and internalization assay; set-up: species or system human
Description: (§4) Cell lines were obtained from the ATCC (IMR-32 and SKNSH) or from Ohio State University (Columbus, Ohio) (SK-R2). All cells lines were maintained in 5% CO2 at 37°C in media defined by the suppliers of the cell lines.
as §1, §2
The times for ligand binding and internalization were analyzed using the standard assay methods described above. […] The first series of experiments used IMR-32 cells that were exposed to a radioligand for varying periods of time (up to 72 hr). The incubation media was replaced at least every 48 hr.
as §3

SK-R2 = assay: Peptide binding and internalization assay; set-up: species or system human
Description: as §4, §1, §2, §3

[3] = NCI grading scale, monthly 180 mCi doses
[4] = IMR-32, competitor octreotide acetate
[5] = IMR-32 cells exposed to radioligand up to 72 hr
[6] = SKR-2, competitor octreotide acetate

## (^111In-DTPA-D-Phe^1)-octreotide [^111In-pentetreotide]
[1]; [3]
  Treatment-related toxicity: Grade I Hb: 2
  Treatment-related toxicity: Grade I WBC: 1
  Treatment-related toxicity: Grade II WBC: 1
  Treatment-related toxicity: Grade III platelet: 2
[1]; monthly 180 mCi doses (bolus, then infusion over 72 hr, then 24 hr)
  Clinical benefits (reduced pain, weight gain, reduced malaise, etc.): 6 of the 10
[1]; monthly 180 mCi doses
  Partial radiographic responses (greater than 50% reduction in the product of perpendicular tumor diameters): 2 patients
  significant tumor necrosis: 7 of the 10
[2]; Infusion 1
  infusion ratio relative to the bolus ratio: 3 fold
[2]; Infusion 2
  infusion ratio relative to the bolus ratio: 4 fold
[2]; Infusion 3
  infusion ratio relative to the bolus ratio: 5 fold
[2]; Infusion Dose 1, after the first 24 hr infusion
  highest ratio relative to the highest ratio from the bolus injection: almost five times higher
[2]; Infusion Dose 3, gamma camera scintigraphy
  tumor foci identifiable by gamma scintigraphy: still identifiable by gamma scintigraphy thirteen days after completion of the last infusion dose
SKNSH; 1 CPM/cell
  Total Binding (CPM ± SD), MEMBRANE: 87 ± 114 CPM
  Total Binding (CPM ± SD), TOTAL: 861 ± 30 CPM
SKNSH; 1 CPM/cell, after acid wash
  Total Binding (CPM ± SD), INTRACELLULAR: 775 ± 107 CPM
SKNSH; competitor octreotide acetate
  Specific Binding (CPM), INTRACELLULAR: 0 CPM
  Specific Binding (CPM), MEMBRANE: 0 CPM
IMR-32; IMR-32, 1 CPM/cell
  Total Binding (CPM ± SD), MEMBRANE: 2,373 ± 417 CPM
  Total Binding (CPM ± SD), TOTAL: 4,780 ± 928 CPM
IMR-32; IMR-32, 1 CPM/cell, after acid wash
  Total Binding (CPM ± SD), INTRACELLULAR: 2,408 ± 51 CPM
IMR-32; IMR-32, Scatchard plot analysis, read-out: Kd (apparent dissociation constant)
  Kd: 4 nM
IMR-32; [4]
  Specific Binding (CPM), INTRACELLULAR: 1.536 CPM
  Specific Binding (CPM), MEMBRANE: 2,372 CPM
  Specific Binding (CPM), TOTAL: 3,908 CPM
IMR-32; [5]
  fractions of total radioactivity incorporated into the cell: 40-75%
  time of maximal binding: 48 to 72 h
SK-R2; SK-R2 cell line
  binding associated with the plasma membrane: 95%
SK-R2; SKR-2, 1 CPM/cell
  Total Binding (CPM ± SD), MEMBRANE: 33,655 ± 2,728 CPM
  Total Binding (CPM ± SD), TOTAL: 36,261 ± 2,085 CPM
SK-R2; SKR-2, 1 CPM/cell, after acid wash
  Total Binding (CPM ± SD), INTRACELLULAR: 2,607 ± 672 CPM
SK-R2; SKR-2, Scatchard plot analysis, read-out: Kd (apparent dissociation constant)
  Kd: 1 nM
SK-R2; [6]
  Specific Binding (CPM), INTRACELLULAR: 1,792 CPM
  Specific Binding (CPM), MEMBRANE: 33,683 CPM
  Specific Binding (CPM), TOTAL: 35,475 CPM
